Each structure is given as a SMILES string. Values joined by “and” are separate entries in the source; they are usually repeats but may differ in a detail not shown here. Equal entries are not always repeated.

For series [1], the system named is EPIDERM skin culture. Briefly: MTT assay, viability of EPIDERM skin culture. In kind it is cell-based, human. The settings on record: 0.4% (w/v) in PBS + protease insult, relative to control+control. The source says: The MTT dye is taken up by the cells. The reduction of the dye as a result of cellular metabolism can be used to measure the cytotoxicity of the test compositions. In order to confirm viability, inserts of the EPIDERM skin culture that have already been subjected to the test compositions and biological insults are removed from their media and are washed consecutively through immersion in three different beakers of PBS. Fresh PBS is used for each test composition or control being evaluated. The PBS is discarded onto paper towel. The EPIDERM skin culture inserts are then patted onto paper towel and placed into the wells of a 24 well plate containing 300 microliters of pre-warmed media. After all of the EPIDERM skin culture inserts are washed, they are transferred to new 24 well plates containing 300 microliters of the MTT reagent. […] The plates are incubated for 2-3 hours in a 37° C., 5% CO2 incubator. After incubation, the EPIDERM skin culture inserts are transferred to 24 well plates and are immersed in 2 milliliters of MTT extraction buffer. The extraction buffer extracts the MTT reagent from the cells. […] The optical density (OD) of the samples is measured at 570 nm using a spectrophotometer. […] This reading is subtracted from a background reading at 650 nm to improve data quality.
(In general: Tetrazolium assays rely on reduction of a dye to a coloured formazan, in cell work by metabolically active cells.)

For series [2], the system named is EPIDERM skin culture. The series can be described thus: EPIDERM skin culture study: IL-1α response to fecal protease (trypsin-chymotrypsin) insult. In kind it is cell-based, human. The settings on record: six hours, one value per set of experiments. The method, then: In order to evaluate the efficacy of the skin care solutions of the invention, a human skin culture was selected to model the response of the human epidermis. EPIDERM skin culture is a cornified, air-interfaced human skin culture. EPIDERM skin culture has multiple layers of progressively differentiated keratinocytes resembling human epidermis. EPIDERM EPI-200 skin culture can be purchased from MatTek Corporation of Ashland, MA. Experiments using EPIDERM skin culture are conducted in six well plates. Each well contains one milliliter of pre-warmed media that is the same as the EPIDERM skin culture media. The plates are then incubated in a 37° C., 5% CO2 incubator for thirty minutes. […]
After application of the insult solution, the well plates are incubated for six hours in the 37° C., 5% CO2 incubator. […] The response of the EPIDERM skin culture to the test compositions/control and the insult solution is determined by measuring the amount of interleukin-1 alpha (hereinafter “IL-1α”). Interleukin-1 alpha can be quantified using an Interleukin-1 alpha Quantikine Kit available from R&D Systems of Minneapolis, Minnesota. Interleukin-1 alpha measurements are converted to Loges for each of the treatments and the averages for each treatment are calculated. […]
(Test composition+insult) result=the measured amount of IL-1α from treatment with a test composition+protease insult. […]

As to `O=C(O[C@@H]1Cc2c(O)cc(O)cc2O[C@@H]1c1cc(O)c(O)c(O)c1)c1cc(O)c(O)c(O)c1` [Epigallocatechin gallate], in the series on EPIDERM skin culture [1], the “Viability (percentage)” value is 103% and 101% and 112%.

Consider `[Cl-].[Cl-].[Sr+2]` [Strontium Chloride], for which the “Mean Reduction of Interleukin-1 Alpha (percentage)” value was 0% (10) with EPIDERM skin culture [2] (1% in PBS) and 15% (10) in the series with EPIDERM skin culture [2] (10% in PBS).
